The subject of assay [1] is 4T1-Fluc-Neo/eGFP-Puro cells (mouse mammary carcinoma cells). As to the kind of experiment: Cell viability of 4T1-Fluc-Neo/eGFP-Puro cells after transfection (Celltiter Glo, ATP). The note with it: three doses, 24 hours, RNAiMax lipofectamine carrier (doxorubicin alone without lipofectamine). In kind it is cell-based. Here is the method: To measure the effect of the complexes on cell viability, the formed complexes were transfected into 4T1-Fluc-Neo/eGFP-Puro cells (mouse mammary carcinoma cells stably expressing FLuc and eGFP). Approximately 10,000 cells per well were plated in 96-well plates, maintained in RPMI 1640 medium with […], fetal bovine serum, 100 U/mL penicillin, 100 μg/mL streptomycin at 37° C. under 5% CO2. After 24 hours, the culture media was replaced with Opti-MEM I reduced serum medium (Invitrogen Life Technologies). RNAiMax lipofectamine (Invitrogen Life Technologies) was used as a carrier for siScrm2, dox:siScrm2, siRNA3, or dox:siRNA3 delivery. Doxorubicin was administered to the control sample without the lipofectamine. Three hours following transfection, the medium in each sample was replaced with complete culture media. After 24 hours, relative cell viability was determined by quantifying ATP using Celltiter Glo Luminescent Cell Viability Kit (Promega), according to the manufacturer's instructions. Experiments were conducted in triplicate.

Assay [2] concerns JIMT1 cells (trastuzumb-resistant human breast cancer). Kind of assay: Cell viability of JIMT1 cells after transfection (Celltiter Glo, ATP). The format is cell-based. The note with it: three doses, 24, 48, 72 hours, RNAiMax lipofectamine carrier (doxorubicin alone without lipofectamine). Here is the method:
To measure the effect of the complexes on cell viability, the formed complexes were transfected into JIMT1 cells (trastuzumb-resistant human breast cancer). Approximately 10,000 cells per well were plated in 96-well plates, maintained in RPMI 1640 medium with […] fetal bovine serum, 100 U/mL penicillin, 100 μg/mL streptomycin at 37° C. under 5% CO2. After 24 hours, the culture media was replaced with Opti-MEM I reduced serum medium (Invitrogen Life Technologies). RNAiMax lipofectamine (Invitrogen Life Technologies) was used as a carrier for siRNA, Dox:siRNA complexes, and the Dox:DNA oligo complex delivery. Doxorubicin was administered to the control sample without the lipofectamine. Three hours following transfection, the medium in each sample was replaced with complete culture media. After 24, 48, or 72 hours, relative cell viability was determined by quantifying ATP using Celltiter Glo Luminescent Cell Viability Kit (Promega), according to the manufacturer's instructions. Experiments were conducted in triplicate. Results are shown in FIG. 5A (24 hours), 5B (48 hours), and SC (72 hours).
A general note: Cellular ATP, detected with luciferase, serves as a proxy for viable cell number.

On to `COc1cccc2c1C(=O)c1c(O)c3c(c(O)c1C2=O)C[C@@](O)(C(=O)CO)C[C@@H]3O[C@H]1C[C@H](N)[C@H](O)[C@H](C)O1` [doxorubicin], for which the relative cell viability result in assay [1] and in assay [2] was “dose-dependent decrease in cell viability” each time.
